≈ marks a conversion by molar mass, not a printed value.

For this test, the system named is M. tuberculosis H37Rv growth inhibition. Kind of test: Mycobacterium tuberculosis H37Rv growth inhibition, putative kinase inhibitor library, confirmatory dose response (AID 2842).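 Note: bacteria incubated one week before Alamar blue readout.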

As a reminder, the IC90 is the concentration needed for an effect of 90%. In the case of `Cc1[nH]c2ccccc2c1/C=N/NC(=O)c1cc(-c2ccc(Br)s2)[nH]n1`, the IC90 is 12.2 µg/mL (≈ 28.6 µM).
As for `Cc1ccc(C(=O)Nc2nnc(C3=COCCO3)o2)cc1`, the IC90 is 2.78 µg/mL (≈ 9.68 µM).
Take `CCCCOc1cccc(C(=O)Nc2nnc(-c3cc(Cl)ccc3Cl)o2)c1`: the IC90 was 12.9 µg/mL (≈ 31.8 µM).
With `CS(=O)(=O)c1ccc(-c2nnc(NC(=O)c3ccc(Cl)s3)o2)cc1`, the IC90 is 1.67 µg/mL (≈ 4.35 µM).
To `Cc1cccc(C(=O)Nc2nnc(-c3cc(Cl)ccc3Cl)o2)c1` belongs 32 µg/mL (≈ 91.9 µM); to `Cc1ccc(C)c(-c2nnc(NC(=O)c3ccccc3S(C)(=O)=O)o2)c1`, 19.3 µg/mL (≈ 52 µM); to `O=C(Nc1nnc(-c2ccco2)o1)C1CCCCC1`, 50.4 µg/mL (≈ 193 µM).
To `CC(C)C(=O)Nc1nnc(-c2ccc3c(c2)OCCO3)o1` belongs 52.3 µg/mL (≈ 181 µM).
The value for `Cc1ccc(C)c(-c2nnc(NC(=O)c3c(F)cccc3F)o2)c1` was 5.74 µg/mL (≈ 17.4 µM); that for `OCc1nc2ccccc2n1CCCCOc1ccc(Cl)cc1` was 7.39 µg/mL (≈ 22.3 µM); that for `COc1ccc(C2CC(c3c(-c4ccccc4)c4cc(Br)ccc4[nH]c3=O)=NN2C(=O)c2ccccc2)cc1` (stereo not given) was 1.07 µg/mL (≈ 1.85 µM).
As for `Cc1cc(NC(=O)/C=C/c2ccc([N+](=O)[O-])s2)no1`, the IC90 is 4.04 µg/mL (≈ 14.5 µM).
Regarding `Cc1cccc2sc(NNC(=O)c3cc4ccccc4oc3=O)nc12`, the IC90 is 2.94 µg/mL (≈ 8.37 µM).
The value for `O=C1CN(C(=O)c2cccc(F)c2)C(c2ccc(F)cc2)c2cc(Br)ccc2N1` (stereo not given) was 32.1 µg/mL (≈ 70.2 µM); that for `CC(C)C(=O)Nc1nnc(-c2ccc(Br)cc2)o1` was 1.24 µg/mL (≈ 4 µM); that for `COc1cc2ccccc2cc1C(=O)Nc1nnc(-c2cc(Cl)ccc2Cl)o1` was 27.6 µg/mL (≈ 66.5 µM).
To `COc1ccc(Cl)c2sc(N(CCCn3ccnc3)C(=O)c3cccs3)nc12` belongs 1.72 µg/mL (≈ 3.97 µM); to `COc1cccc(C(=O)N(CCCn2ccnc2)c2nc3c(C)cccc3s2)c1OC`, 4.2 µg/mL (≈ 9.62 µM); to `O=C1c2cccc3cccc(c23)C(=O)N1CCc1ccc(S(=O)(=O)N2CCCCC2)cc1`, 5.87 µg/mL (≈ 13.1 µM).
To `O=C1CN(C(=O)c2cccc3ccccc23)C(c2ccc(F)cc2)c2cc(Br)ccc2N1` (stereo not given) belongs 10.2 µg/mL (≈ 20.8 µM); to `COc1ccc(-c2nnc3c4cc(OC)ccc4n(Cc4ccccc4F)cc2-3)cc1`, 9.08 µg/mL (≈ 22 µM).
As to `c1c2c(cc3sc(N4CCCC4)nc13)OCO2`, the IC90 was less than 0.2 µg/mL.
The value for `c1csc(Nc2nc3cc4c(cc3s2)OCO4)n1` was 8.57 µg/mL (≈ 30.9 µM).
In the case of `CCOc1ccc(-c2nnc3c4cc5c(cc4n(Cc4ccccc4OC)cc2-3)OCO5)cc1`, the IC90 was 9.22 µg/mL (≈ 20.3 µM).
The value for `Cc1ccc(N=Nc2c(C)[nH][nH]c2=O)cc1` was 10.1 µg/mL (≈ 46.6 µM); that for `COc1ccc(C(=O)Nc2nc3c(s2)CCCC3)c(OC)c1` was 6.13 µg/mL (≈ 19.3 µM); that for `COc1cccc2sc(Nc3nnc(-c4ccccc4)o3)nc12` was 6.08 µg/mL (≈ 18.7 µM).
To `COc1ccc(-c2nnc3c4cc5c(cc4n(Cc4ccc(C)cc4)cc2-3)OCCO5)cc1` belongs 5.09 µg/mL (≈ 11.6 µM); to `COC(=O)c1c(NC(=O)Cc2cccc3ccccc23)sc2c1CC(C)(C)NC2(C)C`, 3.73 µg/mL (≈ 8.54 µM); to `COc1ccccc1Cn1cc2c(-c3ccc(Cl)cc3)nnc-2c2ccccc21`, 8.89 µg/mL (≈ 22.2 µM).
To `CCOC(=O)COc1cccc(/C=C2\Oc3cc(OC)ccc3C2=O)c1` belongs 3.52 µg/mL (≈ 9.93 µM); to `Cc1ccc(C)c2[nH]c(=O)c(CCNC(=S)NCCn3ccc4ccccc43)cc12`, 3.53 µg/mL (≈ 8.43 µM); to `NC(=O)C1CCN(C2=NC(=O)/C(=C\c3ccc(Cl)cc3Cl)S2)CC1`, less than 0.2 µg/mL.
With `COc1cc(-c2nnc(NC(=O)C3CCCCC3)o2)cc(OC)c1OC`, the IC90 was 18.4 µg/mL (≈ 50.8 µM).
To `CCC(=O)Nc1nnc(-c2ccc(Cl)s2)o1` belongs 8.62 µg/mL (≈ 33.4 µM); to `Cc1ccc(-c2nnc3c4cc5c(cc4n(Cc4ccccc4F)cc2-3)OCCO5)cc1C`, 6.25 µg/mL (≈ 14.2 µM); to `Cc1ccc(-c2nnc(SCC(=O)Nc3cc(C)on3)o2)cc1`, 3.95 µg/mL (≈ 12 µM).
For the compound `Cc1ccc(C)c(-c2nnc(NC(=O)c3ccc(OC(C)C)cc3)o2)c1`, the IC90 was 33.4 µg/mL (≈ 95 µM).
The value for `Clc1cc(Cl)c2nc(N3CCCC3)sc2c1` was 19 µg/mL (≈ 69.5 µM); that for `COc1ccc(NC(=O)c2cccc3nc4ccccc4nc23)c(OC)c1` was 4.07 µg/mL (≈ 11.3 µM); that for `O=Nc1c(-c2ccccc2)cc2ccccn12` was 3.32 µg/mL (≈ 14.9 µM).
As to `Cc1ccc(-c2nnc(NC(=O)C3=COCCO3)o2)c(C)c1`, the IC90 is 7.35 µg/mL (≈ 24.4 µM).
The value for `COc1cccc(/C=N/Nc2nc(=O)[nH]nc2C)c1O` was 0.5 µg/mL (≈ 1.82 µM).
The value for `COc1ccccc1-c1nc(C(N)=O)c2[nH]c(=O)n(-c3ccc(C(C)(C)C)cc3)c2n1` was 9.91 µg/mL (≈ 23.7 µM); that for `COc1cc2ccccc2cc1C(=O)Nc1nnc(-c2ccc(F)cc2)o1` was 5.59 µg/mL (≈ 15.4 µM).
To `CCOC(=O)c1ccc2nc(Nc3nc4ccc(OC)cc4s3)sc2c1` belongs 29 µg/mL (≈ 75.3 µM).
In the case of `COc1ccccc1-c1nnc(Nc2nc3ccc(SC)cc3s2)o1`, the IC90 is 15.9 µg/mL (≈ 42.9 µM).
The value for `Cc1cc(C)cc(Nc2cc(C)nc3c(-c4ccccc4)cnn23)c1` was 2.7 µg/mL (≈ 8.22 µM).
To `CSc1cccc2sc(Nc3cccc(Br)c3)nc12` belongs 6.73 µg/mL (≈ 19.2 µM).
To `CCOc1cccc2sc(N3CCc4ccccc4C3)nc12` belongs 15.3 µg/mL (≈ 49.2 µM); to `Cc1ccc(-c2nnc(NC(=O)COc3ccccc3)o2)c(C)c1`, 5.5 µg/mL (≈ 17 µM).
For `COc1ccccc1-c1cnn2c(Nc3cccc(Cl)c3)cc(C)nc12`, the IC90 was 1.72 µg/mL (≈ 4.71 µM).
Take `CC(=O)N1CCc2c(sc(NC(=O)c3ccc(C)c(C)c3)c2C(N)=O)C1`: the concentration for an effect of 90% (IC90) is 3.4 µg/mL (≈ 9.15 µM).
The value for `O=C(CCCN1C(=O)/C(=C/c2ccco2)SC1=S)Nc1ccccc1` was 2.96 µg/mL (≈ 7.95 µM); that for `O=c1c2ccccc2oc2cc(O)ccc12` was 50 µg/mL (≈ 236 µM); that for `COc1cc(C(=O)Nc2nnc(-c3cc(Cl)ccc3Cl)o2)cc(OC)c1OC` was 28.3 µg/mL (≈ 66.7 µM).
The value for `CCCCOc1ccc(C(=O)Nc2nnc(-c3ccccn3)o2)cc1` was 11.6 µg/mL (≈ 34.3 µM); that for `Cc1ccc(S(=O)(=O)CCCC(=O)Nc2nc3c(Cl)c(Cl)ccc3s2)cc1` was 3.41 µg/mL (≈ 7.69 µM).
The value for `CSc1ccc2nc(Nc3nc4ccc(NC(C)=O)cc4s3)sc2c1` was less than 0.2 µg/mL; that for `CC1(C)COCN1S(=O)(=O)c1ccc(C(=O)Nc2nnc(-c3ccc(F)cc3)o2)cc1` was 23.3 µg/mL (≈ 52.1 µM).
On to `Cc1ccc(C)c(-c2nnc(NC(=O)COc3ccccc3)o2)c1`, for which the IC90 is 2.24 µg/mL (≈ 6.93 µM).
To `O=C1N/C(=N/N=C/c2ccccc2O)SC1Cc1ccc(Cl)cc1Cl` (stereo not given) belongs 1.32 µg/mL (≈ 3.35 µM); to `CCOC(=O)N1CCc2c(sc(NC(=O)C3COc4ccccc4O3)c2C(N)=O)C1` (stereo not given), 8.19 µg/mL (≈ 19 µM).
On to `COc1cccc(OCCN2CCN(c3cc(C)nc4c(-c5ccccc5)cnn34)CC2)c1`, for which the IC90 was 12 µg/mL (≈ 27 µM).
To `O=C(CCSc1ccccc1)Nc1nnc(-c2ccc3c(c2)OCCO3)o1` belongs 16.8 µg/mL (≈ 43.9 µM).
The value for `CCCC(=O)Nc1nnc(-c2ccc(Cl)s2)o1` was 27.2 µg/mL (≈ 100 µM); that for `COc1ccc2nc(Nc3nc4c(s3)C(=O)CC(C)(C)C4)sc2c1` was 15.7 µg/mL (≈ 43.7 µM); that for `Cc1ccc(C)c(-c2nnc(NC(=O)c3cc(Cl)sc3Cl)o2)c1` was 2.16 µg/mL (≈ 5.87 µM).
To `CCSc1ccc(C(=O)Nc2nnc(-c3ccco3)o2)cc1` belongs 0.71 µg/mL (≈ 2.25 µM); to `COC(=O)c1c(NC(=O)c2ccccc2Oc2ccccc2)sc2c1CC(C)(C)NC2(C)C`, 37.1 µg/mL (≈ 79.8 µM).
As to `Cc1cc(C)cc(Nc2nc(Nc3ccc(F)cc3)nc(N3CCOCC3)n2)c1`, the IC90 was 11.1 µg/mL (≈ 28 µM).
To `O=C(Nc1nccs1)c1ccc2c(c1)CCCC2` belongs 3.85 µg/mL (≈ 14.9 µM); to `COc1cc2c3nnc(-c4ccc(Cl)cc4)c-3cn(Cc3ccccc3F)c2cc1OC`, 22.2 µg/mL (≈ 49.7 µM).
The value for `CC(C)(C)c1ccc(C(=O)Nc2nnc(-c3ccncc3)o2)cc1` was 1.18 µg/mL (≈ 3.66 µM); that for `O=C(COc1ccc(Cl)cc1)N1CCN(c2ccc(N3CCCCC3)nn2)CC1` was 14.3 µg/mL (≈ 34.3 µM).
The value for `COc1ccccc1-c1nnc(NC(=O)c2ccco2)o1` was 13.4 µg/mL (≈ 46.9 µM); that for `CCCCn1c(N2CCN(Cc3ccc(Cl)c(Cl)c3)CC2)nc2c1c(=O)[nH]c(=O)n2C` was 7.15 µg/mL (≈ 15.4 µM).
Consider `O=C(Nc1nnc(-c2ccc(Br)cc2)o1)c1ccc2c(c1)CCCC2`, for which the IC90 was 16.8 µg/mL (≈ 42.1 µM).
To `COc1cccc(-c2nnc(NC(=O)c3ccc(Cl)cc3Cl)o2)c1` belongs 8.25 µg/mL (≈ 22.7 µM); to `O=C(Nc1nnc(-c2ccc(Cl)s2)o1)c1cccc([N+](=O)[O-])c1`, 6.09 µg/mL (≈ 17.4 µM).
The value for `CCOC(=O)c1c(NC(=O)Cc2cccc3ccccc23)sc2c1CC(C)(C)NC2(C)C` was 2.08 µg/mL (≈ 4.62 µM); that for `Cc1ccc(Cn2cc3c(-c4ccc(C)c(C)c4)nnc-3c3cc4c(cc32)OCCO4)cc1` was 11.5 µg/mL (≈ 26.5 µM).
The value for `O=C(Nc1nnc(-c2ccc(Cl)cc2)o1)c1cc2ccccc2oc1=O` was 18.2 µg/mL (≈ 49.4 µM); that for `Cc1nc2cc(NC(=O)Nc3ccc(Cl)cc3)ccc2n1-c1ccccc1` was 6.97 µg/mL (≈ 18.5 µM).
On to `COc1ccccc1-c1nnc(NC(=O)c2sc3ccccc3c2Cl)o1`, for which the concentration for an effect of 90% (IC90) was 5.3 µg/mL (≈ 13.7 µM).
To `O=C(Nc1nnc(-c2ccc3c(c2)OCCO3)o1)c1ccccc1Cl` belongs 4.5 µg/mL (≈ 12.6 µM).
The value for `N#Cc1ccc(C(=O)Nc2nnc(-c3ccc(Br)cc3)o2)cc1` was 7.39 µg/mL (≈ 20 µM); that for `COC(=O)CSc1ncnc2c1cnn2-c1ccc(F)cc1` was 4.54 µg/mL (≈ 14.3 µM).
To `COc1ccc(C)c2sc(NNC(=O)c3cccc(F)c3)nc12` belongs 32.6 µg/mL (≈ 98.4 µM); to `Cc1ccc2sc(N(CCCn3ccnc3)C(=O)c3cccs3)nc2c1C`, 0.54 µg/mL (≈ 1.36 µM); to `COc1ccc(OC)c(-c2csc(NC(=O)c3ccc([N+](=O)[O-])o3)n2)c1`, 27.1 µg/mL (≈ 72.2 µM).
As to `O=c1c2[nH]c3ccccc3c2nc(SCCN2CCCCC2)n1-c1ccccc1F`, the IC90 is 14.6 µg/mL (≈ 34.6 µM).
To `Cc1ccc(-c2nnc(NC(=O)c3ccccc3)o2)c(C)c1` belongs 8.78 µg/mL (≈ 29.9 µM).
To `CCc1ccc(-c2nnc3c4cc5c(cc4n(Cc4ccccc4F)cc2-3)OCCO5)cc1` belongs 6.34 µg/mL (≈ 14.4 µM); to `CC(=O)N1CCc2c(sc(NC(=O)c3ccc(N(C)C)cc3)c2C(N)=O)C1`, 8.5 µg/mL (≈ 22 µM).
To `Cc1ccc(C)c(-c2nnc(NC(=O)c3ccc4ccccc4c3)o2)c1` belongs 18.8 µg/mL (≈ 54.7 µM); to `Cc1cc(C)c2nc(C(F)(F)F)nc(NC(C)CCc3ccccc3)c2c1` (stereo not given), 7.61 µg/mL (≈ 20.4 µM).
On to `O=C(Nc1nnc(-c2ccc(Cl)cc2)o1)c1ccccc1Br`, for which the IC90 was 2.46 µg/mL (≈ 6.5 µM).
To `O=C(Nc1nnc(-c2ccc(Br)cc2)o1)c1ccc([N+](=O)[O-])cc1` belongs 50.9 µg/mL (≈ 131 µM); to `CCN(c1ccccc1)S(=O)(=O)c1ccc(C(=O)Nc2ccc3ncsc3c2)cc1`, 14.7 µg/mL (≈ 33.5 µM).

The record behind these values is PubChem BioAssay AID2842 (Southern Research Institute, 2010).
